Laboratory results from patent publication US5138101A, “Recovery of high-boiling aldehydes from rhodium-catalyzed hydroformylation processes” (Eastman Kodak Company, priority 1991, dated 1992).

Experiments:
[1] = Partitioning (partition coefficient, Kp) of hydroformylation products and hydroformylation solvent between hydroformylation solvent phase and alkanol/water extraction solution phase; assay type: physicochemical
From the text: The extraction process described herein is the equilibration of a particular compound dissolving into two separate liquid phases. The effectiveness of the present extraction process may be measured in terms of the partition coefficient (Kp) for a compound "X" which is defined as: [formula] […] High Kp values give high extraction efficiencies requiring lower amounts of extraction solution. Similarly, it is desirable that the Kp of the hydroformylation solvent be a low value. This simplifies purification of the aldehyde products down-stream. In the hydroformylation of diolefins to dialdehydes, it also is desirable to have Kp values for the dialdehyde products larger than the Kp values of the intermediate mono-aldehyde mono-olefin (formyl-olefin) intermediate formed in the hydroformylation reaction. This permits recycling of the formyl-olefin to the hydroformylation reactor in the hydroformylation solvent for further reaction to the desired dialdehyde product, while selectively extracting the desired di-aldehyde product. Likewise, for the same reason, it is desirable to have low Kp values for the olefin or polyolefin feedstocks used in the process.
The extraction examples were carried out in a 300 mL, 3-neck, glass flask equipped with a Teflon magnetic stir bar, a thermometer to measure the temperature of the liquid, a septum for the use of a syringe, a heating mantle and a nitrogen bubbler blanket for the system. […] […] The mixture was stirred at 25° C. for 30 minutes to reach equilibrium, stirring was stopped, and the mixture was allowed to separate into 2 layers (phases) over a 30 minute period of time. […] Samples of each phase were taken with a syringe and chromatographed on a Hewlett Packard Model 5730 capillary FID gas chromatograph. The instrument used a 30 meter DB-1 column (Supelco.) with a programming rate of a 4 minute hold at 70° C. with a programming rate of 8° C./minute to 250° C. The calculations for the weights of hydroformylation products in each phase were carried out using standard procedures using the dodecane as an internal standard for the catalyst layer and methanol as the internal standard for the aqueous layer. The initial volumes of the two phases were used for estimation of the volumes of the two phases at equilibrium to obtain the concentrations of the products in each phase.
The partition coefficients (Kp) were calculated for the C9-enal and C10-dial products for equilibrium between the dodecane hydroformylation solvent and the extraction solution phases at 25° C.
The two phases in the flask were heated to and maintained at 53° C. with stirring for 30 minutes to reach equilibrium. The mixture was allowed to separate into 2 layers at 53° C. and each layer was sampled and analyzed as described above. […] The partitioning procedure was repeated at 70° C.

[2] = Extraction and back-extraction with p-diisopropylbenzene or 1,7-octadiene: rhodium concentration in both phases, composition of extraction solution; assay type: physicochemical
Protocol: Examples […] illustrate yet another embodiment of the process of the present invention wherein extraction solution containing dissolved rhodium is back-extracted with either hydroformylation solvent or olefinic feedstock to reduce the concentration of rhodium in the extraction solution.
The general procedure described in Examples 31-48 was used to extract 60.5 mL of hydroformylation product solution obtained by the hydroformylation of 1,7 octadiene in the presence of a catalyst system comprising rhodium and BISBI phosphine (Reference Example 9). […] The extraction flask was charged with the hydroformylation product solution, 37 mL methanol, 12 mL water and […] [Na] provided as sodium oleate.
For Example 88, the extraction mixture was stirred at room temperature for 30 minutes and then drained into a calibrated, addition funnel and allowed to stand for about five minutes to permit phase separation. The volume of the hydroformylation product solution (organic) phase was 45 mL and the volume of the extraction solution phase was 65 ml. Samples of each phase were taken for rhodium and product composition analyses.
For Example 89, the extraction solution phase separated in Example 88 was added to a clean 250 mL flask along with 30 mL of p-diisopropylbenzene and the mixture was stirred at 50° C. for 30 minutes, was allowed to stand at 50° C. for about 5 minutes to permit phase separation and then each phase was separated and analyzed for composition and rhodium concentration.
For Example 90, the extraction solution separated in Example 89 was added to a clean 250 mL flask along with another 30 mL of p-diisopropylbenzene hydroformylation solvent. The mixture was agitated at 50° C. for thirty minutes, allowed to stand at 50° C. for 5 minutes to permit phase separation and each phase was analyzed for composition and rhodium concentration.
This scheme would be useful in a counter-current extraction method for recycling recovered hydroformylation product solution as well as in using the olefinic feed to the reactor as a back extraction solvent for recovering soluble rhodium from the methanol/water extract.
Example 91 was carried out using the procedure described in Examples 88. The flask was charged with 62 mL of a hydroformylation product solution (Reference Example 10) having a rhodium concentration 166 mg/L and containing 3.01 g of C9-enal, 12.69 g of C10-dial and 37.84 grams of p-diisopropylbenzene. Methanol (37 ml), water (16 ml) and 78 mg Na (as sodium 2-ethylhexanoate) were added to the flask. This mixture was stirred at 50° C. for 30 minutes and then allowed to stand for 5 minutes at 50° C. to permit phase separation. The hydroformylation product solution (organic) phase and the extraction solution phase were both sampled and analyzed for rhodium concentration. The 2 phases were drained into a clean, graduated addition funnel and the volumes of the two phases were measured. The volume of the organic layer was 43 mL and the extraction solution layer was 62 mL.
For Example 92, the extraction solution phase produced in Example 91 was added to a clean, 250 mL flask along with 30 mL of p-diisopropylbenzene and the mixture was stirred at 50° C. for 30 minutes and then allowed to separate into two phases. The two phases were analyzed for rhodium concentration and composition. The mixture was drained into a clean addition funnel to separate the two phases. For Example 93, the extraction solution phase of Example 92 and 30 mL of 1,7-octadiene were added to a clean, 250 mL flask. This mixture was stirred at 50° C. for 30 minutes and then allowed to separate into two phases which were analyzed for rhodium concentration.
The amounts (g) of C9-enal, C10-dial in the sample of hydroformylation product solution initially extracted and in the methanol/water extraction solutions resulting from Examples 91, 92 and 93 are given in Table XIII. The ratio given in Table XIII is the weight ratio of C10-dial:C9-enal. […]

[3] = Example 92, after p-diisopropylbenzene back-extraction
[4] = Example 93, after 1,7-octadiene back-extraction

C1CCC2CCCCC2C1 (stereo not drawn) [decahydronaphthalene]
Partition Coefficient ([1]; Example C-4, Ref. Ex. 17, DEG:water 1:1, 25° C.): 0.0050
Partition Coefficient ([1]; Example C-5, Ref. Ex. 17, DEG:water 1:1, 70° C.): 0.034

CCCCC(CC)COC(=O)c1ccccc1C(=O)OCC(CC)CCCC (stereo not drawn) [di-(2-ethylhexyl) phthalate]
Partition Coefficient ([1]; Example 16, Ref. Ex. 23, MeOH:water 3:1, 50° C.): 0.0448
Partition Coefficient ([1]; Example 17, Ref. Ex. 23, MeOH:water 1:1, 50° C.): 0.0037

c1ccc2c(c1)CCCC2 [tetrahydronaphthalene]
Partition Coefficient ([1]; Example 15, Ref. Ex. 22, MeOH:water 1.5:1, 52° C.): 0.079
Partition Coefficient ([1]; Example C-6, Ref. Ex. 18, DEG:water 3:1, 25° C.): 0.092

isomeric noneneal [C9-enal]
Composition of Extraction Solution (amount) ([2]; Example 91): 1.39 g
Composition of Extraction Solution (amount) [2, 3]: 0.51 g
Composition of Extraction Solution (amount) [2, 4]: 0.18 g

isomeric decanedialdehyde [C10-dial]
Composition of Extraction Solution (amount) ([2]; Example 91): 11.67 g
Weight ratio of C10-dial:C9-enal in extraction solution ([2]; Example 91): 8.40
Weight ratio of C10-dial:C9-enal in extraction solution ([2]; Example 92): 18.06
Composition of Extraction Solution (amount) [2, 3]: 9.21 g
Weight ratio of C10-dial:C9-enal in extraction solution ([2]; Example 93): 33.94
Composition of Extraction Solution (amount) [2, 4]: 6.11 g
